This note sets out measurements from patent US20070066580A1, “Novel aldosterone antagonists and uses thereof” (Recordati Ireland Limited, priority 2005, published 2007).

Assay [1] has as its target T1, GAL4 DBD-hMR LBD fusion protein (Homo sapiens, UniProt P08235).
T1 construct: expressed in transfected cells; host or cells: CV-1 cells (African green monkey kidney), transient co-transfection with pCMX-GAL4-based vector and Galp3TKLuc reporter
Put plainly: Cell-based luciferase assay, agonist mode (CV-1 cells). To be noted: 10 μM of compound. From the text: GAL4 DBD-hMR LBD fusion protein expression vector: A pCMX-GAL4-based vector was used for the expression of a fusion protein composed of the amino acids 1-147 of the DNA binding domain of Saccharomyces cerevisiae GAL4 (GAL4 DBD) (SEQ ID NO: 16) and amino acid residues 729-984 of the ligand binding domain of human mineralocorticoid receptor (hMR LBD) (SEQ ID NO: 14). The expression vector contained an expression cassette of the nucleotide sequence for the GAL4 DBD (See SEQ ID NO: 19) ligated to nucleotides 2401 through 3168 of the human mineralocorticoid (hMR) receptor (SEQ ID NO: 13).
In vitro cell culture: CV-1 cells (African green monkey kidney cell line, ATCC accession number CCL-70) were maintained in culture in 90% DMEM medium supplemented by 9% FCS and 1% Penicillin-Streptomycin-L-Glutamine at 37° C. under 8.5% CO2.
These cells were transiently co-transfected with the GAL4 DBD-hMR LBD fusion protein expression vector and the Galp3TKLuc reporter gene vector using the FuGENE 6 Transfection Reagent (Roche) according to the manufacturer's instructions.
Agonist assay: As a positive control, aldosterone (Acros Organics, catalogue # 215360050) was used at a concentration of 100 nM. The negative control sample was 90% DMEM medium supplemented by 9% charcoal-treated FCS and 1% Penicillin-Streptomycin-L-Glutamine containing 0.2% DMSO plus 0.02% ethanol. Positive control, negative control, or 10 μM final concentration of test compound was added to the cells and incubated for 24 hours at 37° C. under 8.5% CO2 before the Luciferase substrate (Promega, catalogue number #E2620) was added. After an incubation period of 5 min at RT, luminescence signals were read on a microplate reader (Molecular Devices/LJL Biosystems). Negative and positive controls were defined as 0% and 100% agonism, respectively. The agonistic potency of test compounds is given in % and was normalized to the positive and negative controls.

In the next assay the target is T2, aldosterone receptor (Rattus norvegicus, UniProt P22199).
T2 construct: from tissue; host or cells: whole animal: adrenalectomised male Sprague-Dawley rats
T2 sequence (P22199 1-981): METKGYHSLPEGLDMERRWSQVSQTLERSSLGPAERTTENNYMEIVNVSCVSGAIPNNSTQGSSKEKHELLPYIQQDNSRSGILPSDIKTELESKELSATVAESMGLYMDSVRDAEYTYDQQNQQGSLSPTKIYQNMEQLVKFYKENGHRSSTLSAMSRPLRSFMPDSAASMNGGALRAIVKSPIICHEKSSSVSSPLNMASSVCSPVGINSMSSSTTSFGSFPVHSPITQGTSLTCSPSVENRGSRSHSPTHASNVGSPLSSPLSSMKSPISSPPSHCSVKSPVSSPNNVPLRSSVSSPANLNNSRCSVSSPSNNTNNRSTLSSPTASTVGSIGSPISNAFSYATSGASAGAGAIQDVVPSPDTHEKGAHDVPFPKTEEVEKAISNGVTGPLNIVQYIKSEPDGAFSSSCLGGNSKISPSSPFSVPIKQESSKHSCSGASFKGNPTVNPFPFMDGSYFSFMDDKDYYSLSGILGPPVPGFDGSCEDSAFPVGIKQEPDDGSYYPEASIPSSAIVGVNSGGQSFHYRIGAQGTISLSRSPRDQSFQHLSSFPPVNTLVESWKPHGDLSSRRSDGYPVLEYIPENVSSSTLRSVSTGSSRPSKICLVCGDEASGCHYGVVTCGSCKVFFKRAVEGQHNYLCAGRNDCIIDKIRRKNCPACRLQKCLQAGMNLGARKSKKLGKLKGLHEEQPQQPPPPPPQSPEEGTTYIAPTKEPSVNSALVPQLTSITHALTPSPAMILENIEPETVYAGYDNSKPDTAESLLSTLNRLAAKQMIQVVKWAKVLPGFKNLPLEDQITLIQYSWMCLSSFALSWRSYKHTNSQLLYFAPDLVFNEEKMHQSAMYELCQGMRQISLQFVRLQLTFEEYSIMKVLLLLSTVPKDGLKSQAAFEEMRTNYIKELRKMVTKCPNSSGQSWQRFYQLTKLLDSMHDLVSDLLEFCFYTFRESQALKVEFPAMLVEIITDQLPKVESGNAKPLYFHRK
The assay can be described thus: Kagawa model, urinary Na+/K+ ratio in adrenalectomised rats given aldosterone. It counts as in vivo. The settings on record: adrenalectomized rats, oral gavage, aldosterone 3 μg/animal s.c. From the text:
To evaluate the in vivo activity of test compounds as aldosterone receptor antagonists, the Kagawa model was used, with some modifications. The original model first described by Kagawa (Endocrinology 1960; 67:125-131) has been widely utilised and reported in several published papers.
Bilateral adrenalectomised male Spague-Dawley rats aging approximately 5 weeks and weighing between 150 and 170 g at the time of surgery were obtained from Charles River (UK) Ltd., Margate, Kent. Following adrenalectomy, animals were maintained with standard diet and 0.9% (w/v) saline to drink. Saline replaces sodium ions lost due to the absence of the adrenal glands.
The animals were maintained for three days in standard condition and were trained in metabolic cages on one occasion prior to the test day for approximately 5 hours.
Food was withheld from animals overnight prior to dosing. Saline was available ad libitum.
Approximately 2 hours before dosing, saline was removed from the animals to ensure similar hydration levels. […]
The cumulative urine volume was measured and collected for analysis at 0-3 and 3-6 hours post-aldosterone. Urine was analysed for urinary sodium and potassium concentration. […]
Mean Na^+:K^+ ratios from each group were calculated. […]
The data were analysed using one-way Analysis of Variance (ANOVA). […]

T1 sequence (P08235 with tags, fused parts or gaps limits assumed): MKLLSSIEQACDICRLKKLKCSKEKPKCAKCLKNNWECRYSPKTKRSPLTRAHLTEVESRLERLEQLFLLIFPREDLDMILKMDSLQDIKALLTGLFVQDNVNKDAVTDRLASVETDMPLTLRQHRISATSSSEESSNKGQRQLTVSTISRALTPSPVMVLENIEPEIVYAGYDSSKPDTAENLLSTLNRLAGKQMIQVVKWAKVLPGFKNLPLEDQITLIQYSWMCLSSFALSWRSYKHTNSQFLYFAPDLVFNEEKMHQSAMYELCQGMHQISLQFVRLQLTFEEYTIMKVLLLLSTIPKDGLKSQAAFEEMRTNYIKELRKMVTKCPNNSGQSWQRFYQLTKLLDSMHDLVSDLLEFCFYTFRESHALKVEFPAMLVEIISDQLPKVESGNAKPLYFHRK

Consider `CCS[C@@H]1CC2=CC(=O)CC[C@]2(C)C2=CC[C@@]3(C)C(CC[C@@]34CCC(=O)O4)C21` (some centres unmarked) [Example 13], for which, in assay [1], the “potency for activation of MR relative to aldosterone” value was “at least three orders of magnitude less potent than aldosterone”. Besides, the “urinary Na+/K+ ratio relative to animals only receiving aldosterone” value on aldosterone receptor is “statistically significant increase”.
